For assay [1], the system named is Epidermal growth factor receptor (Homo sapiens), P00533 [L858R,T790M]. Description: Inhibition of human EGFR T790M/L858R double mutant assessed as residual activity at 1 uM relative to control. The format is protein assay.
For assay [2], the target named is Dual specificity mitogen-activated protein kinase kinase 1 (Homo sapiens) (UniProt Q02750). Description: Inhibition of human MEK1 assessed as residual activity at 1 uM relative to control.
Assay [3] deals with Serine/threonine-protein kinase PAK 4 (Homo sapiens) (UniProt O96013). Description: Inhibition of human PAK4 assessed as residual activity at 1 uM relative to control.
The target in assay [4] is Misshapen-like kinase 1 (Homo sapiens) (UniProt Q8N4C8). Briefly: Inhibition of human MINK assessed as residual activity at 1 uM relative to control.
For assay [5], the target named is T1, Ephrin type-B receptor 4 (Homo sapiens) (UniProt P54760).
T1 sequence (whole entry): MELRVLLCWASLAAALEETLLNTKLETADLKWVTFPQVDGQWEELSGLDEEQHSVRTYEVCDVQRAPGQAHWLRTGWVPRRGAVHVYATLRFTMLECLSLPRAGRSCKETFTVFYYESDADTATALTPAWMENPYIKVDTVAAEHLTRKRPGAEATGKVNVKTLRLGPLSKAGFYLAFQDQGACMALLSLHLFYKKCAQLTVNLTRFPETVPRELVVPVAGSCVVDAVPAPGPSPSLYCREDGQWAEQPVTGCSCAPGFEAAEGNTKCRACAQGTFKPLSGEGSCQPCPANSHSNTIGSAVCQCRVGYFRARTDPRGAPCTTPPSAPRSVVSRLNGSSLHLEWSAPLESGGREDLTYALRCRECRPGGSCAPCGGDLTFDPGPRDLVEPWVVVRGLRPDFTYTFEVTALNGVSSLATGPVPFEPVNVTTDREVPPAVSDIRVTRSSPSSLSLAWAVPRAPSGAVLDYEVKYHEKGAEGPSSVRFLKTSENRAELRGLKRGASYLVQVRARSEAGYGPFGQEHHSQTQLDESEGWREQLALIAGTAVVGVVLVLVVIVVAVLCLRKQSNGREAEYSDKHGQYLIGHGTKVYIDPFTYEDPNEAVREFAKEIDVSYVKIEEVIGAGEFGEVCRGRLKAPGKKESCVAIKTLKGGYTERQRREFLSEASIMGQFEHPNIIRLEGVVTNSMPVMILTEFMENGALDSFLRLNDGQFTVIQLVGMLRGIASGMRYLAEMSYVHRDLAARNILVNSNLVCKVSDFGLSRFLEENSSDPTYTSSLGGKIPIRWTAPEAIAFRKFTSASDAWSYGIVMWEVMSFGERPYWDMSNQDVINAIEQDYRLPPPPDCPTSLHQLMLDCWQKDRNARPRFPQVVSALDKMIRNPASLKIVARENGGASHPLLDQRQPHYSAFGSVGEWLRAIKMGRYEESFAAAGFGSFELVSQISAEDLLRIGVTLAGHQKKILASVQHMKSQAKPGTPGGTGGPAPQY
Briefly: Inhibition of human EPHB4 assessed as residual activity at 1 uM relative to control.

Assay [6] addresses 5'-AMP-activated protein kinase catalytic subunit alpha-2 (Homo sapiens) (UniProt P54646). Description: Inhibition of human AMPKalpha2 assessed as residual activity at 1 uM relative to control.
For assay [7], the target named is Proto-oncogene tyrosine-protein kinase receptor Ret (Homo sapiens) (UniProt P07949). Description: Inhibition of human RET assessed as residual activity at 1 uM relative to control.
Assay [8] has as its target T2, Serine/threonine-protein kinase TBK1 (Homo sapiens, UniProt Q9UHD2).
T2 sequence (Q9UHD2 whole entry): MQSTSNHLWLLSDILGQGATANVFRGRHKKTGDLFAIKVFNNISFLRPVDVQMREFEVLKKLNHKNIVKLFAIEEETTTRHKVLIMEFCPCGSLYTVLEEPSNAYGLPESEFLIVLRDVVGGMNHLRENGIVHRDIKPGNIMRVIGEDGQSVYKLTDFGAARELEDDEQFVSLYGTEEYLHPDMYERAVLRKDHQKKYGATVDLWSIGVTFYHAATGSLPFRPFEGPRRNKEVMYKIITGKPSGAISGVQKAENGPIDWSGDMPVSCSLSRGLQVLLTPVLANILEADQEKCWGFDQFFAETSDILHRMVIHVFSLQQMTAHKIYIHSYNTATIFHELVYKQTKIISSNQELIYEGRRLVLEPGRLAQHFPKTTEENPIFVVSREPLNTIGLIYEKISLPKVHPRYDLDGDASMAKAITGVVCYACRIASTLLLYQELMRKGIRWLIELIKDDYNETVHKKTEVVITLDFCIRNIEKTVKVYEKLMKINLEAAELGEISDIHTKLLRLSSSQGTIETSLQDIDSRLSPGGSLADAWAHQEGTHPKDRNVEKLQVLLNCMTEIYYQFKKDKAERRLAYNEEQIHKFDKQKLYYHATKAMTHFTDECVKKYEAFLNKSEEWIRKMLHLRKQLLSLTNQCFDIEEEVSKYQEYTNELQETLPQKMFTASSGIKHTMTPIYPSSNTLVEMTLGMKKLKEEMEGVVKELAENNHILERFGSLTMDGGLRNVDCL
Description: Inhibition of recombinant full-length TBK1 (unknown origin) using CK1tide as substrate by microfluidic mobility shift assay.

Assay [9] deals with Hepatocyte growth factor receptor (Homo sapiens) (UniProt P08581). Description: Inhibition of human MET assessed as residual activity at 1 uM relative to control.
Assay [10] deals with Mast/stem cell growth factor receptor Kit (Homo sapiens) (UniProt P10721). Briefly: Inhibition of human cKIT assessed as residual activity at 1 uM relative to control.
In assay [11] the target is RAF proto-oncogene serine/threonine-protein kinase (Homo sapiens) (UniProt P04049). Briefly: Inhibition of human c-RAF assessed as residual activity at 1 uM relative to control.
Assay [12] concerns the target CDK9/cyclin T1 (Homo sapiens) (UniProt O60563+P50750). Description: Inhibition of human CDK9/cyclin T1 assessed as residual activity at 1 uM relative to control. The format is protein-complex assay.

For orientation: IC50 means the concentration at which inhibition is half-maximal.

SMILES strings stand for the structures.

Sequence of Hepatocyte growth factor receptor (Homo sapiens) (P08581 whole entry): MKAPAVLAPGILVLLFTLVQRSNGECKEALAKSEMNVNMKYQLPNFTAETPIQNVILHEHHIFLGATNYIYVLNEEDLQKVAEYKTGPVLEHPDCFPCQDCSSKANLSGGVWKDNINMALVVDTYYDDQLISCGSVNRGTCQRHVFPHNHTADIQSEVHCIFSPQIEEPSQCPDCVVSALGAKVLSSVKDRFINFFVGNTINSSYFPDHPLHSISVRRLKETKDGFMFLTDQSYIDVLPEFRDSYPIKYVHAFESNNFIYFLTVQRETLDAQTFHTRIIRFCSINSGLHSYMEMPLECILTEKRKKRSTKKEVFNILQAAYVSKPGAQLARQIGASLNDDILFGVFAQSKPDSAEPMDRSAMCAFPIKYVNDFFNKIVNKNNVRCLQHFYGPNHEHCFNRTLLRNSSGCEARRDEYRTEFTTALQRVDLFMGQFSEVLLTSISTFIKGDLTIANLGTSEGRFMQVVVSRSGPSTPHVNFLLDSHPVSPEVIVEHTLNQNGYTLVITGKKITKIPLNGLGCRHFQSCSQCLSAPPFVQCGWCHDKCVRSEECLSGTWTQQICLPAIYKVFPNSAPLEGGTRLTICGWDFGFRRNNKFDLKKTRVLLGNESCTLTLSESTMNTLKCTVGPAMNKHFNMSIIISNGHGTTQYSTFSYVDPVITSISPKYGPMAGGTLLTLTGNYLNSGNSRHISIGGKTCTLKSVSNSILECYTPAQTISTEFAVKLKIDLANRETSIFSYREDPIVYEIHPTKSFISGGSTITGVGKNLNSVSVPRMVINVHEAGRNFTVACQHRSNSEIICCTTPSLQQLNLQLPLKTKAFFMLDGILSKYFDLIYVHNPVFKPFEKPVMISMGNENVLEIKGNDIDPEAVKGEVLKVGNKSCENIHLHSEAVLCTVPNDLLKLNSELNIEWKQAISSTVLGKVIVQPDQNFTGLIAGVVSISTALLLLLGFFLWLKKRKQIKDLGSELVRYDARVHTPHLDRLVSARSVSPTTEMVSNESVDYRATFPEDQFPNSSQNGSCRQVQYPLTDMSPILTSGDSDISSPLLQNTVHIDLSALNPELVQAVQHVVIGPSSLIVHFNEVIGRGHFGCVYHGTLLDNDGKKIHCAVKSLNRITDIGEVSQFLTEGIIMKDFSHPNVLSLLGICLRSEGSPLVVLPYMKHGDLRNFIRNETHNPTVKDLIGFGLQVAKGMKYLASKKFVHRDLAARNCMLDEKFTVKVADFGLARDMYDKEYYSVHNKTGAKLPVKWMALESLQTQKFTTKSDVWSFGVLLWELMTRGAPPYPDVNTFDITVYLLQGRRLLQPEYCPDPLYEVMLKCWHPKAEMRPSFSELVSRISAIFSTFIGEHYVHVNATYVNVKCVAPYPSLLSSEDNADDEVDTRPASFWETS
Sequence of Proto-oncogene tyrosine-protein kinase receptor Ret (Homo sapiens) (P07949 whole entry): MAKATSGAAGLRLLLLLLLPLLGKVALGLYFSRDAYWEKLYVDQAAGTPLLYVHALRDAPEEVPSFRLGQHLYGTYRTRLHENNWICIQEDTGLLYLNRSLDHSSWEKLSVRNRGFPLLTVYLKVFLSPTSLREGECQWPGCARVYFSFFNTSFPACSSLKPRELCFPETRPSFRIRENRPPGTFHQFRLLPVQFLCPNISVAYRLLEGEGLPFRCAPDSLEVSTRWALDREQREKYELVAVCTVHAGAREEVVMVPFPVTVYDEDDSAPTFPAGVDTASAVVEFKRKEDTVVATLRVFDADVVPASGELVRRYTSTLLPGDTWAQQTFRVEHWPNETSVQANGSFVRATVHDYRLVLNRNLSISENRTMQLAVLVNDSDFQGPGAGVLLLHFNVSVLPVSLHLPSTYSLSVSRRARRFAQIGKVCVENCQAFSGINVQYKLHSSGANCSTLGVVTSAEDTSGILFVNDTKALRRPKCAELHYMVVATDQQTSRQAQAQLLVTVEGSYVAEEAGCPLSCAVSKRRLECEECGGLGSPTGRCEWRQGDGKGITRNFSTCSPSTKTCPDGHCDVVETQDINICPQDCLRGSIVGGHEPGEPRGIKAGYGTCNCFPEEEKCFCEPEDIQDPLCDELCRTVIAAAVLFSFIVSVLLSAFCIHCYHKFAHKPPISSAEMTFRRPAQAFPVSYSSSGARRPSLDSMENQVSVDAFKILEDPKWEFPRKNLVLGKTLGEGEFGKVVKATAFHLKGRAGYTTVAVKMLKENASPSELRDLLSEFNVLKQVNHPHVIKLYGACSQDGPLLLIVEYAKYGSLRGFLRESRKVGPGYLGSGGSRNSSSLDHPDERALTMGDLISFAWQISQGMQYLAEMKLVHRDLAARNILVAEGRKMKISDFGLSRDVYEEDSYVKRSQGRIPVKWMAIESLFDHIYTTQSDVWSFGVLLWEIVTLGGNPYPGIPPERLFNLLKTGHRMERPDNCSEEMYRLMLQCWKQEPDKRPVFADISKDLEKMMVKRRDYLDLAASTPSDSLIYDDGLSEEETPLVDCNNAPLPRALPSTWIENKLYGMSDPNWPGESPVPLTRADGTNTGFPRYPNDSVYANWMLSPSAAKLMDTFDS
Sequence of Mast/stem cell growth factor receptor Kit (Homo sapiens) (P10721 whole entry): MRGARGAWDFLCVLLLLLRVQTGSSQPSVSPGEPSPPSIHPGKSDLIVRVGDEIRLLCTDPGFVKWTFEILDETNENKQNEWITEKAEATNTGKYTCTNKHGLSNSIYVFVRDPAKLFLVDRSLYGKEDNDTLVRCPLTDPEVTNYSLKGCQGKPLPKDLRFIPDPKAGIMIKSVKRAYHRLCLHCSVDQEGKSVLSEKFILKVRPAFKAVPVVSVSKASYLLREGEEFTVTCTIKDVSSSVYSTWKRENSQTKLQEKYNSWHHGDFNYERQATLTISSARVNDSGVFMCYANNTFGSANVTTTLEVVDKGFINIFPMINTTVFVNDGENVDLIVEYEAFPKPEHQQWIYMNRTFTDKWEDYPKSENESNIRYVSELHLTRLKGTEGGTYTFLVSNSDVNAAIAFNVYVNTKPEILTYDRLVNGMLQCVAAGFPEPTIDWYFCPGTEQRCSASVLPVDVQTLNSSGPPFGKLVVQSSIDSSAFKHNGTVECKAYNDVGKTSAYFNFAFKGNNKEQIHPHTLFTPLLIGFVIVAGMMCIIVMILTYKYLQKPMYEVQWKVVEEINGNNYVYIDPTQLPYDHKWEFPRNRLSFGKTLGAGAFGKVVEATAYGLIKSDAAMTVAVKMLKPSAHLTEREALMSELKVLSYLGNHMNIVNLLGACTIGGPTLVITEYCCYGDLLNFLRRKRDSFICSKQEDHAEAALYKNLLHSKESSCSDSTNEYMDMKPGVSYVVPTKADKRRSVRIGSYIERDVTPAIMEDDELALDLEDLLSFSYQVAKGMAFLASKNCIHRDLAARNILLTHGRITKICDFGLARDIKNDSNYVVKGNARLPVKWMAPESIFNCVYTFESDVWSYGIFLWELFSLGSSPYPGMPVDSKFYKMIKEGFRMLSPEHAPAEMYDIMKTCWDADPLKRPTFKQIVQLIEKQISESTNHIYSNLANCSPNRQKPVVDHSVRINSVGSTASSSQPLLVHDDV
Sequence of RAF proto-oncogene serine/threonine-protein kinase (Homo sapiens) (P04049 whole entry): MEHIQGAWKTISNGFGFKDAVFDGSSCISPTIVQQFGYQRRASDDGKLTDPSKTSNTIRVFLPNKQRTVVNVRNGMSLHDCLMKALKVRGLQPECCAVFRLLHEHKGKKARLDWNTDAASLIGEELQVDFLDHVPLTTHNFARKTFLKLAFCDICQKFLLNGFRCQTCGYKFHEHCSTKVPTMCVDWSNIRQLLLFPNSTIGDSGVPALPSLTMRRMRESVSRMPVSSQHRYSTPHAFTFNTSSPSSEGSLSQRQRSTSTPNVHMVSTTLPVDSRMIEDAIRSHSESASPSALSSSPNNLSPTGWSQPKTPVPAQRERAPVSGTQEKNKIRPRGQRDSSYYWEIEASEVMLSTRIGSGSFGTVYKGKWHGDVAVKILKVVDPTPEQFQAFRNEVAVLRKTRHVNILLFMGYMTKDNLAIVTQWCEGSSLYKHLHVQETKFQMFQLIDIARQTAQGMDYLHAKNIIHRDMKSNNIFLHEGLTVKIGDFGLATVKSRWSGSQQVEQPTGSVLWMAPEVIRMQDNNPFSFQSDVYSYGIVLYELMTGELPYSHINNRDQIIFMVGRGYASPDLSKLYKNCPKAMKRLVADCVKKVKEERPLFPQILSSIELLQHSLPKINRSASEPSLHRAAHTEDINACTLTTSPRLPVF
Sequence of 5'-AMP-activated protein kinase catalytic subunit alpha-2 (Homo sapiens) (P54646 whole entry, looked up): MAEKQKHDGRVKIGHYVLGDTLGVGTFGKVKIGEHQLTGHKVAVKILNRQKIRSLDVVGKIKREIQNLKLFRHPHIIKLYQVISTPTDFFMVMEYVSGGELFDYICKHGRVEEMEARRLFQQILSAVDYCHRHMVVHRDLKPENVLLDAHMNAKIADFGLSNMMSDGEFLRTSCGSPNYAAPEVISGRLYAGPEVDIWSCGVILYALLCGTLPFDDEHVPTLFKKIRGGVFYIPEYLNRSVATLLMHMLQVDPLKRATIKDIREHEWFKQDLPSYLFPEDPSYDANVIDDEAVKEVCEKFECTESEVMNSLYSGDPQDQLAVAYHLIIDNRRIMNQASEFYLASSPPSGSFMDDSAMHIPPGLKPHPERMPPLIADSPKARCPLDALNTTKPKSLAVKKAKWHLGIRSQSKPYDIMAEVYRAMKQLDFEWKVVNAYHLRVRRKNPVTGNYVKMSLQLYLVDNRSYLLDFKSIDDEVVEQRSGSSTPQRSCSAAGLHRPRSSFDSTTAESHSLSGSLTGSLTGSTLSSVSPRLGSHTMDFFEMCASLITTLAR
Sequence of Dual specificity mitogen-activated protein kinase kinase 1 (Homo sapiens) (Q02750 whole entry): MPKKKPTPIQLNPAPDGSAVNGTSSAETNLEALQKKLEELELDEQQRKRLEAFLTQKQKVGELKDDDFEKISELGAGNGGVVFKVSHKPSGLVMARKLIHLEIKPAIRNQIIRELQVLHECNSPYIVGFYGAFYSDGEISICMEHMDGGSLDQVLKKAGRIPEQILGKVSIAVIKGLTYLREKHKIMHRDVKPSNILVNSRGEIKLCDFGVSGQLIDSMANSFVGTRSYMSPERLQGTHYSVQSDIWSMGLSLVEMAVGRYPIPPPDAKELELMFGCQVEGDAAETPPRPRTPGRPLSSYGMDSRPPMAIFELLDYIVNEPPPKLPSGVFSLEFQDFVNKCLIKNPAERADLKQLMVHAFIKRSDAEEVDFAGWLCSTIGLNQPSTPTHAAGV

`COc1ccc(-c2nc3cc(-c4csc(C(=O)NCC(C)(C)C)c4)cnc3[nH]2)cc1`: the Activity in [1] came to 94%; in assay [2], 89%; in assay [3], 87%; in [4], 82%; in assay [5], 79%; in assay [6] it was 46%. The Activity in assay [7] worked out at 10%; in assay [9], 114%; in assay [10], 112%; in assay [11] it was 108%; in [12] it was 103%. Besides, in assay [8], the IC50 worked out at 84 nM.
`COc1ccc(-c2nc3cc(-c4csc(C(=O)NCCC(C)C)c4)cnc3[nH]2)cc1`: the Activity in assay [1] is 76%; in assay [2], 90%; in assay [3], 83%; in assay [4], 86%; in [5], 95%; in [6], 42%. Besides, the Activity came out at 7% in assay [7]; 111% in assay [9]; 107% in [10]; 92% in assay [11]; 95% in assay [12]. Moreover, in assay [8], the IC50 was determined as 143 nM.
For `COc1ccc(-c2nc3cc(-c4csc(C(=O)NCC(C)C)c4)cnc3[nH]2)cc1`, the Activity worked out at 90% in assay [1]; 86% in assay [2]; 89% in assay [3]; 99% in [4]; 74% in [5]; 28% in assay [6]. Besides, the Activity in assay [7] turned out to be 6%; in assay [9], 107%; in assay [10], 103%; in assay [11], 96%; in [12], 100%. Moreover, the IC50 in [8] turned out to be 77 nM.

Values taken from ChEMBL document CHEMBL3124838, “Discovery of 6-aryl-azabenzimidazoles that inhibit the TBK1/IKK-ε kinases” (Bioorg Med Chem Lett, 2014).
